Assay results as given in patent publication US20240115558A1.
“Also recorded” adds a separate entry of the source. Where a name gives a salt, the structure may show the parent alone.

Assays:
[1] = system: NPC1 protein in GM18453 (I1061T/I1061T); test: EndoH-resistant NPC1 by western blot, GM18453 fibroblasts; format: cell-based, human; settings: 400 μM, 5 days
Method: (§1) PNGase cleaves all glycans from the NPC1 protein regardless of maturation status and is included as a control. EndoH sensitive, immature NPC1 is seen in untreated GM18453 extracts. (B) Quantification of the EndoH resistant NPC1, shown as arimoclomol treated relative to untreated cells. Cells were treated for 5 days with 400 μM arimoclomol. Average of three independent experiments, mean±SD. Pairwise t-test (p: *<0.05). The data are further described in Example 2. […]
(§2) Fibroblasts were seeded one day prior to treatment (day −1) with either 400 μM arimoclomol or PBS (control). […] Protein concentration for each sample was quantified with a BCA assay kit. […]
(§3) Proteins were resolved by SDS-PAGE and detected with Western blot (NPC1&tubulin).
(§4) For the quantification of mature and immature forms of NPC1 as shown in FIGS. 5A-B, membranes were imaged and protein bands for the immature (EndoH sensitive) and mature (EndoH resistant) forms of NPC1 (180-250 kDa) and tubulin (50 kDa) were quantified using ImageJ software. […] The fold change of EndoH-resistant NPC1 protein after arimoclomol treatment relative to PBS-treated (untreated) control within each cell line was quantified. […]

[2] = system: NPC1 protein in GM18420 (P1007A/IVS23+4delA); test: EndoH-resistant NPC1 by western blot, GM18420 fibroblasts; format: cell-based, human; settings: 400 μM, 5 days
Method: as §1, §2, §3, §4

[3] = system: patients with Niemann-Pick disease, type C (NPC); test: Phase 2/3 NPC trial: safety evaluation
Method: Study Procedures: the screening visit (visit 1) included a baseline assessment, randomization assignment, and pharmacokinetic (PK) assessment. The first dose of arimoclomol or placebo was given within 1 week of randomization. Safety assessments were performed at visit 2 (7-14 days after start of treatment) and then every 3 months during the blinded period (visits 3-6).

[4] = system: patients with Niemann-Pick disease, type C (NPC); test: 12-month randomized, double-blind, placebo-controlled phase 2/3 trial of arimoclomol in NPC: clinical efficacy endpoints; format: in vivo, human; set-up: key to Change from baseline in 5-domain NPCCSS score, treatment difference / Change in 5-domain NPCCSS score from baseline at 12 months, mean change / Change in 5-domain NPCCSS score, mean change / Change from baseline in 5-domain NPCCSS score, LSMean: 5-domain NPCCSS points (total 0–25, higher = more severe impairment); settings: for Change from baseline in 5-domain NPCCSS score, LSMean / Change from baseline in 5-domain NPCCSS score, treatment difference: patients with ER genotype; for Change in 5-domain NPCCSS score, mean change: 12 months
Method: Patients enrolled in the trial were stratified by use of miglustat at baseline. Patients in both strata were randomized 2:1 to receive arimoclomol or placebo.
Routine clinical care was maintained throughout the trial (including administration of miglustat). Each participant was randomized to receive arimoclomol or placebo three times daily. Arimoclomol (calculated as free base) was administered orally or by feeding tube at 93-372 mg/day based on the patient's body weight up to the estimated equivalence of 372 mg/day for adults (body weight>55 kg) or of 124 mg three times a day.
During the 12-month treatment phase, efficacy assessments for the primary endpoint, the 5-domain NPCCSS score, and for the non-disease specific Clinical Global Impression-Improvement scale (CGI-I) scores were performed at baseline and after 3, 6, 9, and 12 months of treatment; all other efficacy and biomarker assessments were performed at baseline and after 6 and 12 months of treatment.
Primary endpoint: The primary endpoint was change from baseline in NPC severity at 12 months as assessed by the 5-domain NPCCSS score, an abbreviated assessment tool originating from the 17 domain NPCCSS score developed by Yanjanin et al., as described herein. The fully validated 5-domain NPCCSS score comprises the domains determined to be most clinically relevant to patients, caregivers, and clinicians: ambulation, cognition, fine motor skills, speech, and swallowing. The total aggregated 5-domain NPCCSS score ranges from 0 to 25, with a higher score indicating more severe clinical impairment.
Subgroup analyses of primary endpoint: NPC is a heterogeneous disease, and patients aged 2 to 18 years present with a large spectrum of disease presentations. The group of children<4 years old includes patients with mild manifestations and patients with aggressive, early fatal disease. As this group is particularly heterogeneous, a subgroup of patients ≥4 years of age was predefined with the population of study participants.
In the EU, miglustat is indicated for the treatment of progressive neurological manifestations in patients with NPC. However, not all patients are candidates for miglustat treatment, and it is recommended that the benefit of treatment should be evaluated on a regular basis (e.g., every six months). An analysis of the subpopulation of patients receiving miglustat was prespecified to elucidate the effect of arimoclomol in patients on background miglustat treatment. Overall, the subgroups of patients ≥4 years of age, and patients on miglustat treatment, were expected to be more homogeneous with respect to baseline demographics and disease characteristics and therefore more suitable for comparison.
In the first post hoc analysis, subjects with double functional null mutations in NPC1 (NPC1 genotype of Functional Null/Functional Null) were excluded.
In the second post hoc analysis, only subjects with annual severity increment score (ASIS) 0.5-2.0 were included.
In an additional post hoc analysis, only subjects with at least one ER type mutation were included.

NPC1 protein = test: Total NPC1 protein by western blot in NPC patient fibroblast cell lines; format: cell-based, human; settings: patient fibroblasts with the most common NPC1 mutations; 50-400 μM, five days
Method: The data are further described in Example 2.
(§5) Fibroblasts were seeded one day prior to treatment (day −1) with either 400 μM arimoclomol or PBS (control). Cells were treated continuously with arimoclomol from day 0 to day 5, with a media change on day 3, and harvested on day 5. The cells thus experienced 5 days of continued arimoclomol treatment. Cells were subsequently lysed with RIPA buffer containing protease and phosphatase inhibitors. Protein concentration for each sample was quantified with a BCA assay kit.

[5] = evidenced by presence in cerebrospinal fluid of treated ALS patients; cited from earlier work
[6] = system: HSPA1A, the gene encoding HSP70; test: HSPA1A expression in NPC patient fibroblasts treated with arimoclomol; format: cell-based, human; settings: NPC patient fibroblasts I1061T/I1061T; various concentrations; days 2 and 5
Method: The expression level of HSP1A1 is quantified on days 2 and day 5. The data are further described in Example 2.
as §5

Which “Amount of EndoH-resistant (correctly processed) NPC1 relative to PBS-treated cells” value [1] does the source give for `[O-][n+]1cccc(/C(Cl)=N/OC[C@H](O)CN2CCCCC2)c1` [Arimoclomol, (+)-(R)-N-[2-hydroxy-3-(1-piperidinyl)-propoxy]-pyridine-1-oxide-3-carboximidoyl chloride citrate] here?
Its value is “increased”.

And the “Amount of EndoH-resistant (correctly processed) NPC1 relative to PBS-treated cells” value ([1]; listed as arimoclomol)?
The value was “increased; also recorded: clear increase of correctly matured NPC1 protein”.

What about the “Amount of EndoH-resistant (correctly processed) NPC1 relative to PBS-treated cells” value [2] of the same molecule?
The value was “increased”.

And the Tolerability ([3]; 12-month trial)?
The Tolerability was “well tolerated”.

And the “Patients with increase in serum creatinine level over 1.5 times their baseline values” ([3]; arimoclomol group)?
Its value is “Six”.

What about the “Patients with serum creatinine levels over twice baseline values” ([3]; arimoclomol group) of the same molecule?
The value was “two”.

What about the “Patients with TEAEs” value ([3]; arimoclomol group, 30/34) of the same molecule?
The value was 88.2%.

What about the “Changes in vital signs, electrocardiograms, or other laboratory values during the trial” value ([3]; in vivo) of the same molecule?
The value was “no significant changes”.

What about the “TEAEs occurring more frequently with arimoclomol versus placebo” value ([3]; in vivo) of the same molecule?
The value was “Upper respiratory tract infection and decreased weight”.

And the “Patients with TEAEs that led to trial drug discontinuation” value ([3]; three patients, four TEAEs (urticaria, angioedema, increased blood creatinine))?
The value was 8.8%.

What about the “SARA score change from baseline to 12 months, LS mean” value ([4]; human, in vivo) of the same molecule?
Its value is 1.06.

What about the “SARA score change from baseline to 12 months, arimoclomol vs placebo: difference” value ([4]; human, in vivo) of the same molecule?
The value was 0.28.

What about the “Change in 5-domain NPCCSS score from baseline at 12 months, mean change” value ([4]; overall population, arimoclomol 93-372 mg/day (free base) t.i.d.) of the same molecule?
The value was 0.80.

And the “Change from baseline in 5-domain NPCCSS score, LSMean” value (“Change from baseline … LSMean” for short) ([4]; month 3)?
The value was −0.29.

What about the “Change from baseline in 5-domain NPCCSS score, treatment difference” value (“Change from baseline … treatment difference” for short) ([4]; month 3) of the same molecule?
Its value is −1.60.

And the “Change from baseline … LSMean” value ([4]; month 6)?
Its value is 0.61.

And the “Change from baseline … treatment difference” value ([4]; month 6)?
Its value is −2.19.

What about the “Change from baseline … LSMean” value ([4]; month 9) of the same molecule?
Its value is 0.86.

And the “Change from baseline … treatment difference” value ([4]; month 9)?
The value was −3.44.

And the “Change from baseline … LSMean” value ([4]; month 12)?
Its value is 0.52.

What about the “Change from baseline … treatment difference” value ([4]; month 12) of the same molecule?
The value was −4.79.

What about the “Change in 5-domain NPCCSS score, mean change” value ([4]; post hoc: ASIS within 0.5 and 2) of the same molecule?
Its value is 0.19.

And the “Change in 5-domain NPCCSS score, mean change” value ([4]; post hoc: excluding individuals with double functional null mutations)?
Its value is 0.47.

And the “Amount of total NPC1 protein relative to PBS-treated control” value (NPC1 protein)?
The value was “increased”.

And the Blood-brain barrier passage [5]?
Its Blood-brain barrier passage is “crosses the blood-brain barrier”.

And the “Expression of HSPA1A relative to PBS-treated control” value [6]?
Its value is “time- and dose-dependent increase”.
